According to patent US12559506B2, “Indazole based compounds and associated methods of use” (Arvinas Operations, Inc., priority 2021, dated 2026):

Molecular target: T1, LRRK2 (endogenous, HiBit tagged) (Homo sapiens, UniProt Q5S007)
T1 construct: endogenous in cells; host or cells: HEK293 cells with HiBit knock-in at the endogenous LRRK2 locus, stably expressing firefly luciferase
Test: Endogenous LRRK2 degradation assay, endogenous gene C-terminally HiBit-tagged in HEK293 cells (Nano-Glo Dual Luciferase)
Type: cell-based
Settings: endogenous HiBit-tagged LRRK2 in HEK293 cells, 24 hours treatment; for Dmax: read-out: **Endogenous WT Dmax (%); for DC50: read-out: *Endogenous WT DC50
How it was run: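 LRRK2-HiBit quantified via Nano-Glo Dual Luciferase in HEK293 knock-in cells co-expressing firefly luciferase, after 24 h exposure to compound (1 μM final top, 1:3, 11 points). Values normalised to DMSO median per plate and curve-fitted; Alamar Blue viability run alongside.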

T1 sequence (Q5S007 whole entry): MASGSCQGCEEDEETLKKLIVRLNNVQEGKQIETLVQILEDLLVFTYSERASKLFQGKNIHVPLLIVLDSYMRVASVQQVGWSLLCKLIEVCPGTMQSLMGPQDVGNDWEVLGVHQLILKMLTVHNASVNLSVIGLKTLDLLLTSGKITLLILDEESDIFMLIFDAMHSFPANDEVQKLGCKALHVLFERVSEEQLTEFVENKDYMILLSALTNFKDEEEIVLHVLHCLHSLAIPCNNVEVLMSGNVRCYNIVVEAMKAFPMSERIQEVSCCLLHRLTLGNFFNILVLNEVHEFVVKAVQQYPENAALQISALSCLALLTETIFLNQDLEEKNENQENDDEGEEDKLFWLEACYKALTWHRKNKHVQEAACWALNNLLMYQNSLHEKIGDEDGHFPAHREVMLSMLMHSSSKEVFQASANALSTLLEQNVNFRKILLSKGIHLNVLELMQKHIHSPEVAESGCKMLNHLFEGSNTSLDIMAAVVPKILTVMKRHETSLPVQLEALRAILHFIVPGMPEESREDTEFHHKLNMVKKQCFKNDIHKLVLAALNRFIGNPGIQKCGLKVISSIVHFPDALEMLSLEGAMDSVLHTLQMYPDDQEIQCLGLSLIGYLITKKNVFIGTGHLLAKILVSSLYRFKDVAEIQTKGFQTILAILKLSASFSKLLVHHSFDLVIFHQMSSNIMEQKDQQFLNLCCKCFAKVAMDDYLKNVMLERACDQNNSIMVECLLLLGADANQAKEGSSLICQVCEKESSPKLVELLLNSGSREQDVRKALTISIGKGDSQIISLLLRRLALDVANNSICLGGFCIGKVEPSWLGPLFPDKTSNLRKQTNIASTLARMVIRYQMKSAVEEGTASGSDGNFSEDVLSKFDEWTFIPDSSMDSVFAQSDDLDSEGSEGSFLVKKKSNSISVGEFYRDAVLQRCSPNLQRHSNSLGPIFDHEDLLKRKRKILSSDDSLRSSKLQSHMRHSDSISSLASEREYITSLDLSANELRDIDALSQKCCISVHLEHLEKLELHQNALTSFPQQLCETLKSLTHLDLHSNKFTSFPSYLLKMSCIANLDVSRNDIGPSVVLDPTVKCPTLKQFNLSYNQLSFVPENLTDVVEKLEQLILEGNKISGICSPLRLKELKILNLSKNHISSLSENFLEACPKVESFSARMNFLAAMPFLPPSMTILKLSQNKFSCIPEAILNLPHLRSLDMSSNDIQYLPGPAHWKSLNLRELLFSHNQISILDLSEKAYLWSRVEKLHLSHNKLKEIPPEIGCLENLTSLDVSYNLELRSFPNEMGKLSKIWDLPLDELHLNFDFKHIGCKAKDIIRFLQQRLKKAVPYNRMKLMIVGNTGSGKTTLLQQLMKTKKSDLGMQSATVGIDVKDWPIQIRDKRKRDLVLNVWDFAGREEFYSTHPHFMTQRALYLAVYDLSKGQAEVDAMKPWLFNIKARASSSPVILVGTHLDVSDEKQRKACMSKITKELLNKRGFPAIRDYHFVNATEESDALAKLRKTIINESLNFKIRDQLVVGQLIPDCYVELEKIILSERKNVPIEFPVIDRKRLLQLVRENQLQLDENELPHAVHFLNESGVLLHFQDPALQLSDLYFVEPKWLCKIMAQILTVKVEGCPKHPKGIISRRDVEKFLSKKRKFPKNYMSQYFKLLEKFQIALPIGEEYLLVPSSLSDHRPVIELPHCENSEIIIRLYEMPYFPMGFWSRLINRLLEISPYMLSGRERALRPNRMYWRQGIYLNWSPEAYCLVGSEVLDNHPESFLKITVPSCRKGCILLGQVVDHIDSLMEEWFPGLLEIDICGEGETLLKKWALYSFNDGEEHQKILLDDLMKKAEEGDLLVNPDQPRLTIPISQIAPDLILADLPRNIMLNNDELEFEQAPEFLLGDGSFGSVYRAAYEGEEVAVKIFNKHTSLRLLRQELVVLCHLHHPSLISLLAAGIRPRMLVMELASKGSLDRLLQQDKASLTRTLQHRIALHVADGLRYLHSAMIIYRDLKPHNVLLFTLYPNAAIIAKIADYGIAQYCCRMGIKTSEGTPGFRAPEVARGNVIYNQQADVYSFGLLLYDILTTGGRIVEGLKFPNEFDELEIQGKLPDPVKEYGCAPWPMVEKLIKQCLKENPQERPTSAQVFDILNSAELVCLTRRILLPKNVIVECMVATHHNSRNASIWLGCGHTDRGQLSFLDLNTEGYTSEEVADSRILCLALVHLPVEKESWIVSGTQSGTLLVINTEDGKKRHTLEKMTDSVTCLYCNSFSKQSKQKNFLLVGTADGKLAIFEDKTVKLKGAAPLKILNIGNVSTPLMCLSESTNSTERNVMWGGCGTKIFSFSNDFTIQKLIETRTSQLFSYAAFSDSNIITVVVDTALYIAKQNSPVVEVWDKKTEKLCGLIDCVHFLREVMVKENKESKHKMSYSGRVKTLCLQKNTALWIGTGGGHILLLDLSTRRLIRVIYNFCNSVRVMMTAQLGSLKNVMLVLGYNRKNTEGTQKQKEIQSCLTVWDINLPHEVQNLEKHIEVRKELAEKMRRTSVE

Dmax	DC50	Compound
50 to 70%	< 10 nM	CC1(Oc2ccc3n[nH]c(-c4cc(N5CCN(C[C@H]6CO[C@H](CN7CCN(c8ccc9c(c8F)CN(C8CCC(=O)NC8=O)C9=O)CC7)CO6)CC5)ncn4)c3c2)CC1 (stereo partly shown) [Compound 296, 3-[4-fluoro-5-(4-{[(2r,5s)-5-[(4-{6-[5-(1-methylcyclopropoxy)-2H-indazol-3-yl]pyrimidin-4-yl}piperazin-1-yl)methyl]-1,4-dioxan-2-yl]methyl}piperazin-1-yl)-1-oxo-2,3-dihydro-1H-isoindol-2-yl]piperidine-2,6-dione]
50 to 70%	< 10 nM	CC1(Oc2ccc3n[nH]c(-c4cc(N5CCC(O[C@H]6C[C@H](N7CC[C@@H](c8ccc9c(c8F)CN(C8CCC(=O)NC8=O)C9=O)[C@@H](F)C7)C6)CC5)ncn4)c3c2)CC1 (stereo partly shown) [Compound 297, 3-{4-fluoro-5-[(3r,4s)-3-fluoro-1-[(1r,3r)-3-[(1-{6-[5-(1-methylcyclopropoxy)-2H-indazol-3-yl]pyrimidin-4-yl}piperidin-4-yl)oxy]cyclobutyl]piperidin-4-yl]-1-oxo-2,3-dihydro-1H-isoindol-2-yl}piperidine-2,6-dione]
50 to 70%	< 10 nM	COc1c(N2CCC(CN3CCC(OC4CN(c5cc(-c6[nH]nc7ccc(OC8(C)CC8)cc67)ncn5)C4)CC3)CC2)ccc2c1CN(C1CCC(=O)NC1=O)C2=O (stereo not shown) [Compound 298, 3-{4-methoxy-5-[4-({4-[(1-{6-[5-(1-methylcyclopropoxy)-2H-indazol-3-yl]pyrimidin-4-yl}azetidin-3-yl)oxy]piperidin-1-yl}methyl)piperidin-1-yl]-1-oxo-2,3-dihydro-1H-isoindol-2-yl}piperidine-2,6-dione]
50 to 70%	< 10 nM	CC1(Oc2cc3c(-c4cc(N5CCN(C[C@@H]6CCN(CC7CCN(c8ccc9c(c8F)CN(C8CCC(=O)NC8=O)C9=O)CC7)C[C@@H]6F)CC5)ncn4)n[nH]c3cc2F)CC1 (stereo partly shown) [Compound 299, 3-[4-fluoro-5-(4-{[(3r,4s)-3-fluoro-4-[(4-{6-[6-fluoro-5-(1-methylcyclopropoxy)-1H-indazol-3-yl]pyrimidin-4-yl}piperazin-1-yl)methyl]piperidin-1-yl]methyl}piperidin-1-yl)-1-oxo-2,3-dihydro-1H-isoindol-2-yl]piperidine-2,6-dione]
≥ 70%	< 10 nM	CC1(Oc2ccc3n[nH]c(-c4cc(N5CCC(CN6CC(F)(CN7CCN(c8ccc9c(c8F)CN(C8CCC(=O)NC8=O)C9=O)CC7)C6)CC5)ncn4)c3c2)CC1 (stereo not shown) [Compound 301, 3-{4-fluoro-5-[4-({3-fluoro-1-[(1-{6-[5-(1-methylcyclopropoxy)-2H-indazol-3-yl]pyrimidin-4-yl}piperidin-4-yl)methyl]azetidin-3-yl}methyl)piperazin-1-yl]-1-oxo-2,3-dihydro-1H-isoindol-2-yl}piperidine-2,6-dione]
50 to 70%	< 10 nM	COc1c(N2CCN(C[C@H]3CO[C@H](CN4CCN(c5cc(-c6n[nH]c7cnc(OC8(C)CC8)cc67)ncn5)CC4)CO3)CC2)ccc2c1CN(C1CCC(=O)NC1=O)C2=O (stereo partly shown) [Compound 302, 3-[4-methoxy-5-(4-{[(2s,5r)-5-[(4-{6-[5-(1-methylcyclopropoxy)-1H-pyrazolo[3,4-c]pyridin-3-yl]pyrimidin-4-yl}piperazin-1-yl)methyl]-1,4-dioxan-2-yl]methyl}piperazin-1-yl)-1-oxo-2,3-dihydro-1H-isoindol-2-yl]piperidine-2,6-dione]
50 to 70%	< 10 nM	COc1c(N2CCC(CN3CCN(C[C@H]4CCN(c5cc(-c6n[nH]c7ccc(OC8(C)CC8)cc67)ncn5)C4)CC3)CC2)ccc2c1CN(C1CCC(=O)NC1=O)C2=O (stereo partly drawn) [Compound 303, 3-(4-methoxy-5-{4-[(4-{[(3R)-1-{6-[5-(1-methylcyclopropoxy)-1H-indazol-3-yl]pyrimidin-4-yl}pyrrolidin-3-yl]methyl}piperazin-1-yl)methyl]piperidin-1-yl}-1-oxo-2,3-dihydro-1H-isoindol-2-yl)piperidine-2,6-dione]
50 to 70%	< 10 nM	CC1(Oc2ccc3n[nH]c(-c4cc(N5CCN(CC6(F)CN(CC7CCN(c8ccc9c(c8F)CN(C8CCC(=O)NC8=O)C9=O)CC7)C6)CC5)ncn4)c3c2)CC1 (stereo not shown) [Compound 306, 3-{4-fluoro-5-[4-({3-fluoro-3-[(4-{6-[5-(1-methylcyclopropoxy)-2H-indazol-3-yl]pyrimidin-4-yl}piperazin-1-yl)methyl]azetidin-1-yl}methyl)piperidin-1-yl]-1-oxo-2,3-dihydro-1H-isoindol-2-yl}piperidine-2,6-dione]
50 to 70%	< 10 nM	C[C@@H]1CN(CC2CCN(c3cc(-c4n[nH]c5ccc(OC6(C)CC6)cc45)ncn3)CC2)C[C@H](C)N1CC1CCN(c2ccc3c(c2F)CN(C2CCC(=O)NC2=O)C3=O)CC1 (stereo partly drawn) [Compound 307, 3-[5-(4-{[(2R,6S)-2,6-dimethyl-4-[(1-{6-[5-(1-methylcyclopropoxy)-1H-indazol-3-yl]pyrimidin-4-yl}piperidin-4-yl)methyl]piperazin-1-yl]methyl}piperidin-1-yl)-4-fluoro-1-oxo-2,3-dihydro-1H-isoindol-2-yl]piperidine-2,6-dione]
50 to 70%	< 10 nM	CC1(Oc2ccc3[nH]nc(-c4cc(N5CCC(O[C@H]6CCN(CC7CCN(c8ccc9c(c8F)CN(C8CCC(=O)NC8=O)C9=O)CC7)C(C)(C)C6)CC5)ncn4)c3c2)CC1 (stereo partly drawn) [Compound 308, 3-(5-(4-(((S)-2,2-dimethyl-4-((1-(6-(5-(1-methylcyclopropoxy)-1H-indazol-3-yl)pyrimidin-4-yl)piperidin-4-yl)oxy)piperidin-1-yl)methyl)piperidin-1-yl)-4-fluoro-1-oxoisoindolin-2-yl)piperidine-2,6-dione]
≥ 70%	< 10 nM	CC1(Oc2ccc3[nH]nc(-c4cc(N5CCC(CN6CCN(C(C)(C)C7CCN(c8ccc9c(c8F)CN(C8CCC(=O)NC8=O)C9=O)CC7)CC6)CC5)ncn4)c3c2)CC1 (stereo not shown) [Compound 309, 3-{4-fluoro-5-[4-(2-{4-[(1-{6-[5-(1-methylcyclopropoxy)-1H-indazol-3-yl]pyrimidin-4-yl}piperidin-4-yl)methyl]piperazin-1-yl}propan-2-yl)piperidin-1-yl]-1-oxo-2,3-dihydro-1H-isoindol-2-yl}piperidine-2,6-dione]
50 to 70%	< 10 nM	CC1(Oc2ccc3[nH]nc(-c4cc(N5CCC(CN6CC[C@@H](OC7CCN(c8ccc9c(c8F)CN(C8CCC(=O)NC8=O)C9=O)CC7)CC6(C)C)CC5)ncn4)c3c2)CC1 (stereo partly drawn) [Compound 310, 3-[5-(4-{[(4R)-2,2-dimethyl-1-[(1-{6-[5-(1-methylcyclopropoxy)-1H-indazol-3-yl]pyrimidin-4-yl}piperidin-4-yl)methyl]piperidin-4-yl]oxy}piperidin-1-yl)-4-fluoro-1-oxo-2,3-dihydro-1H-isoindol-2-yl]piperidine-2,6-dione]
50 to 70%	< 10 nM	COc1c(N2CCC(CN3CCN(C[C@@H]4CCN(c5cc(-c6n[nH]c7ccc(OC8(C)CC8)cc67)ncn5)C4)CC3)CC2)ccc2c1CN(C1CCC(=O)NC1=O)C2=O (stereo partly drawn) [Compound 311, 3-(4-methoxy-5-{4-[(4-{[(3S)-1-{6-[5-(1-methylcyclopropoxy)-1H-indazol-3-yl]pyrimidin-4-yl}pyrrolidin-3-yl]methyl}piperazin-1-yl)methyl]piperidin-1-yl}-1-oxo-2,3-dihydro-1H-isoindol-2-yl)piperidine-2,6-dione]
50 to 70%	< 10 nM	CC1(Oc2ccc3[nH]nc(-c4cc(N5CCC(CN6CC[C@H](OC7CCN(c8ccc9c(c8F)CN(C8CCC(=O)NC8=O)C9=O)CC7)CC6(C)C)CC5)ncn4)c3c2)CC1 (stereo partly drawn) [Compound 313, 3-[5-(4-{[(4S)-2,2-dimethyl-1-[(1-{6-[5-(1-methylcyclopropoxy)-1H-indazol-3-yl]pyrimidin-4-yl}piperidin-4-yl)methyl]piperidin-4-yl]oxy}piperidin-1-yl)-4-fluoro-1-oxo-2,3-dihydro-1H-isoindol-2-yl]piperidine-2,6-dione]
50 to 70%	< 10 nM	COc1c(N2CCN(C[C@H]3C[C@H](OC4CCN(c5cc(-c6[nH]nc7ccc(OC8(C)CC8)cc67)ncn5)CC4)C3)CC2)ccc2c1CN(C1CCC(=O)NC1=O)C2=O (stereo partly shown) [Compound 314, 3-[4-methoxy-1-oxo-5-(4-{[(1r,3r)-3-[(1-{6-[5-(1-methylcyclopropoxy)-2H-indazol-3-yl]pyrimidin-4-yl}piperidin-4-yl)oxy]cyclobutyl]methyl}piperazin-1-yl)-2,3-dihydro-1H-isoindol-2-yl]piperidine-2,6-dione]

Compound	Dmax	DC50
CC1(Oc2ccc3n[nH]c(-c4cc(N5CCN(C[C@H]6C[C@H](OC7CCN(c8ccc9c(c8F)CN(C8CCC(=O)NC8=O)C9=O)CC7)C6)CC5)ncn4)c3c2)CC1 (stereo partly shown) [Compound 300, 3-(4-fluoro-1-oxo-5-{4-[(1r,3r)-3-[(4-{6-[5-(1-methylcyclopropoxy)-2H-indazol-3-yl]pyrimidin-4-yl}piperazin-1-yl)methyl]cyclobutoxy]piperidin-1-yl}-2,3-dihydro-1H-isoindol-2-yl)piperidine-2,6-dione]	50 to 70%	< 10 nM
CC1(Oc2ccc3n[nH]c(-c4cc(N5CC6(CCN([C@H]7C[C@H](OC8CCN(c9ccc%10c(c9F)CN(C9CCC(=O)NC9=O)C%10=O)CC8)C7)CC6)C5)ncn4)c3c2)CC1 (stereo partly shown) [Compound 304, 3-(4-fluoro-1-oxo-5-{4-[(1r,3r)-3-(2-{6-[5-(1-methylcyclopropoxy)-2H-indazol-3-yl]pyrimidin-4-yl}-2,7-diazaspiro[3.5]nonan-7-yl)cyclobutoxy]piperidin-1-yl}-2,3-dihydro-1H-isoindol-2-yl)piperidine-2,6-dione]	50 to 70%	< 10 nM
